In patent US4808596A, “Imidazo[4,5-b]pyridine compounds and pharmaceutical compositions containing same” (Tokyo Tanabe Company, Ltd., priority 1986, dated 1989):
Read-outs that look alike come from different tables or passages of the source.

Legend:
physchem = assay type: physicochemical; settings: solid
Protocol: The storage stability of the present compounds [I] was tested by allowing each test compound to stand under severe conditions (i.e., a temperature of 60° C. and a relative humidity of 75%) for 8 days and then determining its percentage of residue according to a thin-layer densitometric method (Bunseki Kagaku, Vol. 23, No. 9, p. 1016, 1974). More specifically, upon completion of the severe treatment, 100 μg of each test compound was applied to a thin-layer plate and this plate was developed with a chloroform-ethanol mixture (volume ratio 10:1). The thin-layer plate used for this purpose was a TLC Plate Aluminum Oxide 60F254 (manufactured by Merck Co.; 0.25 mm in thickness and 20 cm×20 cm in size), and it was developed over a distance of 15 cm. Then, using a Shimazu Two-wavelength Chromatoscanner CS-910 (manufactured by Shimazu Seisakusho), the resulting spot was analyzed at a wavelength of 300-315 nm.
For purposes of comparison, the percentages of residue of Omeprazole (at a measuring wavelength of 300 nm) and Compounds α and β (at a measuring wavelength of 310 nm) were determined in the same manner as described above and are also shown in Table 1.

gastric acid secretion = test: Inhibitory effect on gastric acid secretion (pylorus ligation); assay type: in vivo, male Wistar rats; settings: Rattus norvegicus, po, rats; total acidity of gastric juice 4 hours after pylorus ligation
Protocol: The inhibitory effect of the present compounds [I] on gastric acid secretion was tested by using male Wistar rats, weighing about 200 g, in groups of five. To these rats which had been fasted overnight, the test compounds were orally administered in a series of appropriately selected doses ranging from 1 to 100 mg/kg. Then, the pyloric end of the stomach was ligated. After the lapse of 4 hours, the total acidity of gastric juice of each rat was measured. More specifically, the test compounds were suspended in a 0.5% aqueous solution of carboxymethyl cellulose and administered to the rats 30 minutes before ligation. Gastric juice was collected by sacrificing and laparotomizing each rat. The total acidity of gastric juice was determined by titrating the gastric juice with a 0.1 N aqueous solution of sodium hydroxide until a pH of 7.0 was reached. As a control experiment, the total acidity of gastric juice of an untreated group was determined in the same manner as described above. The inhibitory effect of the test compounds on gastric acid secretion was evaluated on the basis of the dose (in mg/kg) required to inhibit gastric acid secretion, i.e. the total acidity of gastric juice, by 50% (hereinafter referred to as ED50). The ED50 value of each test compound was determined by calculating the difference in total acidity between the untreated group and each treated group, dividing the difference by the total acidity of the untreated group to obtain the degree of inhibition, and constructing a dose-response curve on the basis of the data thus obtained. For purposes of comparison, the ED50 values of Omeprazole and Compounds α and β were determined in the same manner as described above and are also shown in Table 3.

(H^+ +K^+) ATPase = biological target: T1, (H^+ +K^+) ATPase (Sus scrofa, UniProt P19156); test: Inhibitory effect on (H^+ +K^+) ATPase; assay type: biochemical, hog; settings: at 1 × 10^-3 M; in vitro; read-out: Degree of inhibition, Inhibitory effect on (H^+ + K^+) ATPase
T1 construct: prepared from fresh pieces of the fundus ventriculi of hog stomach; from tissue; host or cells: hog stomach, fundus ventriculi (fresh pieces), prepared by the method of Saccomani et al., J. Biol. Chem. 1976
T1 sequence (P19156 2-1034 limits assumed): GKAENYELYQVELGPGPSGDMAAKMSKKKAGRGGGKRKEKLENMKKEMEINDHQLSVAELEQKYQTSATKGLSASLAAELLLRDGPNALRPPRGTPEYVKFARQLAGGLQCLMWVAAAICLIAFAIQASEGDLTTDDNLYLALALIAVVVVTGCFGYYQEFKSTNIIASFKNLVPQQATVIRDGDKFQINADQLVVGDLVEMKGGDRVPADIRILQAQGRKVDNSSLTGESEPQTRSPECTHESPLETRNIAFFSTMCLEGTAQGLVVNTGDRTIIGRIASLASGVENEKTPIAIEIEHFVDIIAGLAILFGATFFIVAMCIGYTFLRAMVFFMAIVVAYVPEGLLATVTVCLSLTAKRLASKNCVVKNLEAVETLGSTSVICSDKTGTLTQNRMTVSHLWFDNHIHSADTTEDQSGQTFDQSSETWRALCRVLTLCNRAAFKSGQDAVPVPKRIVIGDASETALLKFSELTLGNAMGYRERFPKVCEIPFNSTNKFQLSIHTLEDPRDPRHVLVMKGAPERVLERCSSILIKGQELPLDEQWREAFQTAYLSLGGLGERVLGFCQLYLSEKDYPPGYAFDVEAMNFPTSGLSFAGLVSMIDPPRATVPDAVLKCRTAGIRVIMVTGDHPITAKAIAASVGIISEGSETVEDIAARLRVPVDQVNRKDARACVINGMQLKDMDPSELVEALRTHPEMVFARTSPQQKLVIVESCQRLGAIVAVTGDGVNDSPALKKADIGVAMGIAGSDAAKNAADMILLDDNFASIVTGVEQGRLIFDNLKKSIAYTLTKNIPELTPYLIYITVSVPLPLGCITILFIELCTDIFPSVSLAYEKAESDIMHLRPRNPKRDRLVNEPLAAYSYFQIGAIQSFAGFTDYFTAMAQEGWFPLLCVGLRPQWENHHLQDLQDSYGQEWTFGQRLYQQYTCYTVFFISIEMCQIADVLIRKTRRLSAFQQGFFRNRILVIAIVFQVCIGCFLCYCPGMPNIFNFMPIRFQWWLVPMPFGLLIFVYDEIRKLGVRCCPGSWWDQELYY
T1 sequence (P18434 whole entry partner): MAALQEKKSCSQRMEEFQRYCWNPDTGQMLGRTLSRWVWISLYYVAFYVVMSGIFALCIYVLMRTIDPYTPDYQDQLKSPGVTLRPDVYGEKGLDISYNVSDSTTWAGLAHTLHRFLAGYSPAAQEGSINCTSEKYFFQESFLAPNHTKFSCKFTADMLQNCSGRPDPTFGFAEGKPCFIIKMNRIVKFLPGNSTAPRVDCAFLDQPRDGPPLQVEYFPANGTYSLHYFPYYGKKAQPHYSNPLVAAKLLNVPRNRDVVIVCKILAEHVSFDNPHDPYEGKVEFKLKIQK
Protocol: The inhibitory effect of the present compounds [I] on (H^+ +K^+) ATPase was tested by adding each test compound to a solution containing 300-500 μg, on a protein basis, of the enzyme, incubating this reaction mixture at 35°-37° C. for 5-30 minutes, and then determining the residual activity of (H^+ +K^+) ATPase present in the reaction mixture. The test compounds were dissolved in methanol or ethanol in advance and added to the reaction system in such an amount as to give a concentration of 1×10^-3 M. The (H^+ +K^+) ATPase used in this test was prepared from fresh pieces of the fundus ventriculi of hog stomach according to the method of Saccomani et al. (The Journal of Biological Chemistry, Vol. 251, No. 23, p. 7690, 1976). The residual activity of (H^+ +K^+) ATPase was determined by mixing magnesium chloride and potassium chloride with the incubated reaction mixture, adding adenosine triphosphate thereto, incubating this assay mixture 37° C. for 5-15 minutes to effect an enzymic reaction, and colorimetrically determining the liberated inorganic phosphate by use of an ammonium molybdate reagent. The initial concentrations of magnesium chloride, potassium chloride and adenosine triphosphate were adjusted to 2 mM, 20 mM and 2 mM, respectively. Colorimetric determinations were made at a wavelength of 360-400 nm. As a control experiment, the residual activity of (H^+ +K^+) ATPase was determined by repeating the above-described procedure without adding any test compound to the reaction system. In this table, the inhibitory effect is indicated by the degree of inhibition which was obtained by calculating the difference between the measured value obtained in the control experiment and the measured value resulting from the addition of each test compound and expressing this difference as a percentage of the measured value obtained in the control experiment. For purposes of comparison, the inhibitory effect of Omeprazole and Compounds α and β on (H^+ +K^+) ATPase was tested in the same manner as described above and the results thus obtained are also shown in Table 2.

[1] = Acute toxicity test (LD50); settings: rat, in vivo, rats
Protocol: The acute toxicity (LD50) of several typical examples of the present compounds [I] (i.e., the compounds of Examples 1, 8, 13, 19, 24, 26 and 33) was tested with 5-weeks-old male Wistar rats. […] When Omeprazole was administered orally, its LD50 value was greater than 4000 mg/kg.

Row | SMILES | remaining at 192 h (physchem; 75% rh) [%] | ED50 (gastric acid secretion) [mg/kg] | inhibition at 1000 µM ((H^+ +K^+) ATPase) [%] | LD50 ([1]; ip, intraperitoneal administration) [mg/kg] | LD50 ([1]; oral administration) [mg/kg] | remaining at 192 h (physchem; after treatment at 60° C. and 75% RH for 8 days, read-out: Storage stability, Percentage of residue) [%]
1 | COc1ccc2[nH]c([S+]([O-])Cc3ncc(C)c(OC)c3C)nc2n1 (centres unmarked) [Example 2, 2-[2-(3,5-Dimethyl-4-methoxy)pyridylmethylsulfinyl]-5-methoxyimidazo[4,5-b]pyridine] | 77 | 18 | 96.6 | – | – | –
2 | COc1ccc2[nH]c([S+]([O-])Cc3ncc(C)c(C)c3C)nc2n1 (centres unmarked) [Example 3, 2-[2-(3,4,5-Trimethyl)pyridylmethylsulfinyl]-5-methoxyimidazo[4,5-b]pyridine] | 99 | 9 | 100 | – | – | –
3 | COc1ccc2[nH]c([S+]([O-])Cc3cc(OC)c(C)cn3)nc2n1 (centres unmarked) [Example 4, 2-[2-(4-Methoxy-5-methyl)pyridylmethylsulfinyl]-5-methoxyimidazo[4,5-b]pyridine] | 98 | 15 | 100 | – | – | –
4 | COc1cc(C[S+]([O-])c2nc3nccc(OC)c3[nH]2)ncc1C (centres unmarked) [Example 7, 2-[2-(4-Methoxy-5-methyl)pyridylmethylsulfinyl]-7-methoxyimidazo[4,5-b]pyridine] | 53 | 22 | 98.8 | – | – | –
5 | Cc1cnc(C[S+]([O-])c2nc3nc(OC(C)C)ccc3[nH]2)c(C)c1 (centres unmarked) [Example 10, 2-[2-(3,5-Dimethyl)pyridylmethylsulfinyl]-5-isopropyloxyimidazo[4,5-b]pyridine] | 92 | 19 | 90 | – | – | –
6 | CCCCOc1ccc2[nH]c([S+]([O-])Cc3ncc(C)c(C)c3C)nc2n1 (centres unmarked) [Example 12, 2-[2-(3,4,5-Trimethyl)pyridylmethylsulfinyl]-5-n-butyloxyimidazo[4,5-b]pyridine] | 76 | 21 | 98.5 | – | – | –
7 | CCOc1ccc2[nH]c([S+]([O-])Cc3ncc(C)cc3C)nc2n1 (centres unmarked) [Example 14, 2-[2-(3,5-Dimethyl)pyridylmethylsulfinyl]-5-ethoxyimidazo[4,5-b]pyridine] | 93 | 15 | 100 | – | – | –
8 | COc1c(C)cnc(C[S+]([O-])c2nc3nc(OC(C)C)ccc3[nH]2)c1C (centres unmarked) [Example 15, 2-[2-(3,5-Dimethyl-4-methoxy)pyridylmethylsulfinyl]-5-isopropyloxyimidazo[4,5-b]pyridine] | 87 | 13 | 98.5 | – | – | –
9 | COc1cc(C[S+]([O-])c2nc3nc(OC(C)C)ccc3[nH]2)ncc1C (centres unmarked) [Example 16, 2-[2-(4-Methoxy-5-methyl)pyridylmethylsulfinyl]-5-isopropyloxyimidazo[4,5-b]pyridine] | 90 | 16 | 96.1 | – | – | –
10 | COc1ccnc(C[S+]([O-])c2nc3nc(OC(C)C)ccc3[nH]2)c1 (centres unmarked) [Example 17, 2-[2-(4-Methoxy)pyridylmethylsulfinyl]-5-isopropyloxyimidazo[4,5-b]pyridine] | 75 | 17 | 93.7 | – | – | –
11 | CCCOc1ccc2[nH]c([S+]([O-])Cc3ncc(C)cc3C)nc2n1 (centres unmarked) [Example 18, 2-[2-(3,5-Dimethyl)pyridylmethylsulfinyl]-5-n-propyloxyimidazo[4,5-b]pyridine] | 85 | 19 | 92.3 | – | – | –
12 | Cc1cnc(C[S+]([O-])c2nc3nc(OCC(C)C)ccc3[nH]2)c(C)c1 (centres unmarked) [Example 19, 2-[2-(3,5-Dimethyl)pyridylmethylsulfinyl]-5-isobutyloxyimidazo[4,5-b]pyridine] | 78 | 11 | 100 | > 500 | > 4000 | –
13 | COc1c(C)cnc(C[S+]([O-])c2nc3nc(OCC(C)C)ccc3[nH]2)c1C (centres unmarked) [Example 20, 2-[2-(3,5-Dimethyl-4-methoxy)pyridylmethylsulfinyl]-5-isobutyloxyimidazo[4,5-b]pyridine] | 72 | 10 | 100 | – | – | –
14 | COc1cc(C[S+]([O-])c2nc3nc(OCC(C)C)ccc3[nH]2)ncc1C (centres unmarked) [Example 21, 2-[2-(4-Methoxy-5-methyl)pyridylmethylsulfinyl]-5-isobutyloxyimidazo[4,5-b]pyridine] | 69 | 13 | 97.4 | – | – | –
15 | COc1ccnc(C[S+]([O-])c2nc3nc(OCC(C)C)ccc3[nH]2)c1 (centres unmarked) [Example 22, 2-[2-(4-Methoxy)pyridylmethylsulfinyl]-5-isobutyloxyimidazo[4,5-b]pyridine] | 57 | 15 | 94.6 | – | – | –
16 | Cc1cnc(C[S+]([O-])c2nc3nc(OCC4CC4)ccc3[nH]2)c(C)c1 (centres unmarked) [Example 23, 2-[2-(3,5-Dimethyl)pyridylmethylsulfinyl]-5-cyclopropylmethyloxyimidazo[4,5-b]pyridine] | 95 | 12 | 100 | – | – | –
17 | COc1ccnc(C[S+]([O-])c2nc3nc(OCC4CC4)ccc3[nH]2)c1 (centres unmarked) [Example 25, 2-[2-(4-Methoxy)pyridylmethylsulfinyl]-5-cyclopropylmethyloxyimidazo[4,5-b]pyridine] | 51 | 18 | 92.9 | – | – | –
18 | Cc1ccnc(C[S+]([O-])c2nc3nc(OCC(F)(F)C(F)(F)C(F)(F)F)ccc3[nH]2)c1 (centres unmarked) [Example 30, 2-[2-(4-Methyl)pyridylmethylsulfinyl]-5-(2,2,3,3,4,4,4-heptafluorobutyloxy)imidazo[4,5-b]pyridine] | – | 19 | 92.1 | – | – | 73
19 | Cc1cnc(C[S+]([O-])c2nc3nc(OCCC(C)C)ccc3[nH]2)c(C)c1 (centres unmarked) [Example 34, 2-[2-(3,5-Dimethyl)pyridylmethylsulfinyl]-5-(3-methylbutyloxy)imidazo[4,5-b]pyridine] | 76 | 14 | 98.5 | – | – | –
20 | COc1c(C)cnc(C[S+]([O-])c2nc3ncc(OCCCC4CCCC4)cc3[nH]2)c1C (centres unmarked) [Example 36, 2-[2-(3,5-Dimethyl-4-methoxy)pyridylmethylsulfinyl]-6-(3-cyclopentylpropyloxy)imidazo[4,5-b]pyridine] | 68 | 19 | 93 | – | – | –
